Measured values reported in patent US20140274782A1, “AFFINITY REAGENTS AND METHODS FOR DETECTION, PURIFICATION, AND PROTEOMIC ANALYSIS OF METHYLATED PROTEINS” (The Board of Trustees of the Leland Stanford Junior …, priority 2013, published 2014).

Key:
[1] = tested on: 3×MBT domain of L3MBTL1; assay: SILAC proteomic pull-down 3×MBT vs 3×MBTD355N from 293T nuclear extract, LC-MS/MS; format: binding, human; conditions: for Protein Ratio 3xMBT/D355N: SILAC ratio, 293T nuclear extract pull-down, * = protein identified in only one labeling experiment
Protocol: Protein pull-downs were performed as described above using 600 μg of nuclear extract prepared with isotopic labels as indicated. After eluting with glutathione, 3×MBT domain was removed by dialysis into high salt and rebinding to GSH-sepharose. Bound proteins were separated by SDS-PAGE and analyzed by in-gel tryptic digest followed by LC-MS/MS. Peptides were identified using MaxQuant version 1.2.2.5 (Cox and Mann (2008) Nat. Biotechnol. 26, 1367-1372) and candidate methylated peptides were verified by manual inspection.
For stable isotope labeling by amino acids in cell culture (SILAC) experiments HEK 293T cells were grown for at least six doublings in DMEM for SILAC supplemented with 10% dialyzed fetal bovine serum (FBS), 230 mg/L L-proline and either 100 mg/L each of L-lysine and L-arginine (“light” medium), D4-L-lysine and ^13C6-L-arginine (“medium” media), or ^13C6^15N2-L-lysine and ^13C6^15N4-L-arginine (Thermo Scientific). Heavy methyl labeling used DMEM without L-Methionine or L-Cysteine supplemented with D3^13C-L-Methionine (Sigma), L-Cysteine (Sigma) and 10% dialyzed FBS.
600 μg of nuclear extract was incubated overnight rotating at 4° C. with 20 μl packed 3×MBT or 3×MBTD355N beads in a total volume of 250 μL with binding buffer. Supernatant was removed and saved for use as a loading control. Beads were washed 4×5 minutes with 0.5 mL binding buffer. Protein was eluted by incubating in 20 μL elution buffer (10 mg/mL glutathione in 50 mM Tris pH 8.0) rotating at 4° C. for four hours. Elutions from 3×MBT and 3×MBTD355N were combined and dialyzed overnight at 4° C. against 10,000× volume of dissociation buffer (50 mM Tris pH 7.5, 750 mM NaCl) in a 0.1 mL Slide-A-Lyzer MINI Dialysis Device with 3.5K molecular weight cutoff (Thermo Scientific). 80 μL of GSH-Sepharose was prepared by washing briefly three times with 0.5 mL binding buffer. Dialyzed proteins were added to the GSH-Sepharose and incubated 4 hours rotating at 4° C. to deplete the GST-fusion domains. Supernatant was transferred to a fresh 1.5 mL tube. Proteins were separated by SDS-PAGE on a 10% polyacrylamide gel and stained using SilverQuest Silver Staining Kit (Life Technologies). Lanes were excised, residual 3×MBT band was removed, and gel was diced into 0.5 mm cubes. Gel pieces were destained and processed by in-gel digestion (Carlson et al. (2011) Science Signaling 4) with sequencing grade trypsin (Promega) and the peptide sample was dried completely in a vacuum centrifuge. To prepare a loading control, 2 μL each of light and heavy nuclear extract were combined, 6 μL of 8M urea was added, proteins were denatured by adding 2 μL of 100 mM dithiothreitol in digest buffer (50 mM ammonium bicarbonate) and heating to 60° C. for 1 hour, cysteine was alkylated by adding 2.2 μL 100 mg/mL iodoacetamide in digest buffer and incubating 1 hour at room temperature in darkness, and proteins were digested by adding 80 μL trypsin (Promega) at 12.5 ng/μL in digest buffer and incubating overnight at room temperature in darkness. Digestion was stopped by adding 10 μL of 10% formic acid.
Each experiment consisted of two sets of pull-downs: “forward” labeling with 3×MBT incubated with light nuclear extract and 3×MBTD355N with medium extract, and a second “reverse” labeling experiment with the label conditions swapped. Proteins were included in the results if they were quantified in both labeling directions. To determine reproducibility the entire experiment including the label swap was duplicated using independent protein preparations and a mass spectrometer at another institution.
For 3×MBT pull-down experiment #1 the gel lane was processed and peptides were loaded off-line onto a first dimension trap column (Waters Xbridge, C18, 10 μm particle size, 100 Å pore size, 5 cm packing length, 150 μm column i.d.). […]

[2] = tested on: H3K9me2; assay: Western blot of 293T whole cell extracts ±UNC0638; format: cell-based; conditions: 293T cells
Protocol: For UNC0638 treatments cells were treated for 24 hours with UNC0638 at 2.5 μM or DMSO vehicle control. One experiment treated cells in light media with UNC0638, the other treated cells in heavy media. Both experiments included cells in medium media treated with DMSO for negative control pull-down with 3×MBTD355N.

[3] = biological target: T1, G9a and GLP (Homo sapiens, UniProt Q96KQ7+Q9H9B1); assay: Triple SILAC pull-down after UNC0638 treatment of 293T cells, DMSO/UNC0638 ratio of protein captured by 3×MBT; format: cell-based; conditions: 293T cells, 2.5 μM, 24 hours;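 note: mass spectrometry (Q-Exactive) SILAC quantitation, DMSO/UNC0638 ratio computed after subtracting 3×MBTD355N mutant pull-down background, only proteins with at least twofold 3×MBT over mutant signal considered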
T1 construct: endogenous in cells; host or cells: HEK 293T
T1 sequence (Q96KQ7 2-1210 limits assumed): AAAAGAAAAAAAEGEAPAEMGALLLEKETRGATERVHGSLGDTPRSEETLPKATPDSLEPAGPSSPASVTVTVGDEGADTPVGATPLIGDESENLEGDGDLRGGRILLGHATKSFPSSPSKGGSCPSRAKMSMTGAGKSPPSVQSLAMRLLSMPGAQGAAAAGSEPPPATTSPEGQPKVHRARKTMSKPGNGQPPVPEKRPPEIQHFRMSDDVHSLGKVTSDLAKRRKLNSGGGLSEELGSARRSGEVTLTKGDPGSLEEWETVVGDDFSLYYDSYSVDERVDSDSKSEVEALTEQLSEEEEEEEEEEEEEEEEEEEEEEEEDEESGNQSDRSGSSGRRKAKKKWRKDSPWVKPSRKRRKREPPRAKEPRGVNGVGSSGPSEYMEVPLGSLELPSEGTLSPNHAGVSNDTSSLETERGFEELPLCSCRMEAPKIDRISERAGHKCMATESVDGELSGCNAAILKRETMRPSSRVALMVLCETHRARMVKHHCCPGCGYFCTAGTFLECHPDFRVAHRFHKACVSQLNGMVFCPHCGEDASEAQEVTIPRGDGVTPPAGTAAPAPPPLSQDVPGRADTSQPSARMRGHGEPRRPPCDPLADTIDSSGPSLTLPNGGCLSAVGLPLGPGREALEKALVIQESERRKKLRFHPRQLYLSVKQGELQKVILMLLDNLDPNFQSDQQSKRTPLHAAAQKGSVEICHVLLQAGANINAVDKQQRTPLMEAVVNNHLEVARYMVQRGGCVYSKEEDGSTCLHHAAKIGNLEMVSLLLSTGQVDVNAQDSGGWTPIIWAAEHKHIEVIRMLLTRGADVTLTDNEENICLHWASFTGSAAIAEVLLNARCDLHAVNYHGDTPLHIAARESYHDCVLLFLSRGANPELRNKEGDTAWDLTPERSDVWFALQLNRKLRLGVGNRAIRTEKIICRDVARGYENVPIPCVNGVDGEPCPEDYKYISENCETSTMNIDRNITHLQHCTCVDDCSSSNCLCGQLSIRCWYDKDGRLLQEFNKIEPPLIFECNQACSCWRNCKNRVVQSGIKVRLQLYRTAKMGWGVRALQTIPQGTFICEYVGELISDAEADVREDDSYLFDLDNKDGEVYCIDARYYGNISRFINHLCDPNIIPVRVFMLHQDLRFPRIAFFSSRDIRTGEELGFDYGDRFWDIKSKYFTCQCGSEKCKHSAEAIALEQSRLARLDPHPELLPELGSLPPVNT
T1 sequence (Q9H9B1 2-1298 limits assumed): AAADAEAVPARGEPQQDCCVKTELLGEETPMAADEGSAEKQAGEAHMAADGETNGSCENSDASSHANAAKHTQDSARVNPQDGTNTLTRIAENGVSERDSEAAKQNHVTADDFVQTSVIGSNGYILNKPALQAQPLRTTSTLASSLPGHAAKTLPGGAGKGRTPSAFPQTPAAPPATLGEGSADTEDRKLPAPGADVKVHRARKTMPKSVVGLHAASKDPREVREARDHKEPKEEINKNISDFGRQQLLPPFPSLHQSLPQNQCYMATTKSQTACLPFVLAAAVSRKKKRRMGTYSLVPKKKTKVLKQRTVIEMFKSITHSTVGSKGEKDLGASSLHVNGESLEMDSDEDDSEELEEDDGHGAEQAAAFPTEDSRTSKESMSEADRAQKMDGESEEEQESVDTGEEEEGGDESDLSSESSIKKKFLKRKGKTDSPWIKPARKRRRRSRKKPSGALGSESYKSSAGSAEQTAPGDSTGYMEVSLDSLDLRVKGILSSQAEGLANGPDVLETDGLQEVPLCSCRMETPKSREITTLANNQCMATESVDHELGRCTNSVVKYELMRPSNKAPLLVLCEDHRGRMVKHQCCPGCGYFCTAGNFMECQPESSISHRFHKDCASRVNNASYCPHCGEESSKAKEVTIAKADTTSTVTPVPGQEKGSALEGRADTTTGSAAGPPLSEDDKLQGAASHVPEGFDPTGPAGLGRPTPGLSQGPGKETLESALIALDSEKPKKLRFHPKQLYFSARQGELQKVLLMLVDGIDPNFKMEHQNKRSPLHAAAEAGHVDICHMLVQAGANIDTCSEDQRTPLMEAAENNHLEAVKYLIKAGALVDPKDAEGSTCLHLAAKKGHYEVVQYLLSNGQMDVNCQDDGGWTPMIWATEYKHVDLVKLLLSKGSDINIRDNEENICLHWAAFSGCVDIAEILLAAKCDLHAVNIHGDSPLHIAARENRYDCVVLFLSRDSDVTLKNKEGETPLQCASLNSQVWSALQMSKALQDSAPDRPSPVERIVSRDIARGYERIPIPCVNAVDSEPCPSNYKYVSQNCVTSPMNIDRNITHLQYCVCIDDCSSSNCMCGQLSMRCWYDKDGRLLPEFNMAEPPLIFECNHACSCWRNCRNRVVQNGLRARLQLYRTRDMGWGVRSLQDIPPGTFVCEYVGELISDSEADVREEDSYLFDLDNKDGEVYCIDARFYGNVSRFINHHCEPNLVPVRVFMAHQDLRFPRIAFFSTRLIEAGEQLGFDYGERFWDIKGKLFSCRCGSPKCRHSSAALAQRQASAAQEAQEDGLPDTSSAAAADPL

3×MBTD355N: 3×MBT with mutation of aspartate 355 to asparagine; abrogates binding to methyl-lysine; negative control [reference compound]
number of the 544 identified proteins enriched at 2-fold versus the other domain ([1]; SILAC): 3 | percentage of the 544 identified proteins enriched at 2-fold versus the other domain ([1]; SILAC): 0.6%

COc1cc2c(NC3CCN(C(C)C)CC3)nc(C3CCCCC3)nc2cc1OCCCN1CCCC1 [UNC0638, reference compound]
levels of the G9a target H3K9me2 in treated cells [2]: reduced | number of candidate G9a/GLP substrates showing reduced association with 3×MBT in response to treatment [3]: 23

TUBB2C: protein with methylated lysine identified in 3xMBT pull-down
Protein Ratio 3xMBT/D355N [1]: 2.1

hn RNP A/B: protein with methylated lysine identified in 3xMBT pull-down
Protein Ratio 3xMBT/D355N [1]: 13.4

hnRNP K: protein with methylated lysine identified in 3xMBT pull-down
Protein Ratio 3xMBT/D355N [1]: 8.0
